Assay [1] is filed under the species Homo sapiens. As to the kind of experiment: Compound was evaluated for inhibition of inosine monophosphate dehydrogenase type-II. Format: functional, organism-based.
Assay [2] is filed under the species Homo sapiens. The assay can be described thus: Compound was evaluated for binding affinity by enzymatically to inhibit IMPDH. Format: functional.
Assay [3] is filed under the species Homo sapiens. The assay can be described thus: Compound was evaluated for inhibition of inosine monophosphate dehydrogenase type-I. Format: functional, organism-based.
For assay [4], the species on record is Homo sapiens. As to the kind of experiment: Compound was evaluated for inhibitory concentration of inosine monophosphate dehydrogenase. In kind it is functional, organism-based.
Assay [5] is filed under the species Homo sapiens. The assay can be described thus: Binding affinity towards less potent effect against alcohol dehydrogenase (ADH). In kind it is functional.
The species entered for assay [6] is Homo sapiens. The assay can be described thus: Compound was evaluated for inhibitory concentration potent against IMPDH type-I. Format: functional, organism-based.
Assay [7] is filed under the species Homo sapiens. As to the kind of experiment: Compound was evaluated for inhibitory concentration potent against IMPDH type-II. In kind it is functional, organism-based.

Each structure is given as a SMILES string.

The term IC50 denotes the concentration that inhibits the measured activity by half. Higher therefore signals a need for much substance. In general, Ki refers to the equilibrium dissociation constant of an inhibitor or competing ligand from its target. High values mean lower affinity, low ones higher affinity. As to `NC(=O)c1cccc([C@@H]2O[C@H](CO)[C@@H](O)[C@H]2O)c1`, the IC50 in assay [1] amounted to 880 nM; in assay [3] it was 780 nM. This compound also returned a Ki in assay [2] of 118 nM.

`NC(=O)c1cncc([C@@H]2O[C@H](CO)[C@@H](O)[C@H]2O)c1` displayed an IC50 in assay [4] of 7000 nM.

`NC(=O)c1cccc([C@@H]2O[C@H](CO)[C@@H](O)[C@H]2O)n1`: the concentration for half-maximal inhibition (IC50) in assay [4] stood at 26000 nM. The inhibition constant Ki in assay [5] amounted to 20 nM.

As to `NC(=O)c1csc([C@@H]2O[C@H](CO)[C@@H](O)[C@H]2O)n1` [TIAZOFURIN], the figures for the half-inhibitory concentration (IC50) in assay [6] and in assay [7] were 94 nM and 101 nM, respectively.

(Values after ChEMBL document CHEMBL1129344, “Chemical synthesis of benzamide adenine dinucleotide: inhibition of inosine monophosphate dehydrogenase (types I and II)” (J Med Chem, 1996).)
